In patent US11708319B2, “Biphenyl amides with modified ether groups as HSP90 inhibitors and HSP70 inducers” (THE UNIVERSITY OF KANSAS, priority 2014, dated 2023):
“Also recorded” adds a separate entry of the source.

What was measured:
[1] = tested on: Hsp70 promoter (1.5 kb region upstream of the start codon of the human HSPA1A gene) in 50B11 cells; assay: Luciferase reporter assay assessing Hsp70 induction; format: cell-based; conditions: for Hsp70 induction (luciferase), Mean: 50B11 cells treated 16 hrs, DMSO (negative control) assigned a value of 100
Method: The luciferase reporter assay was performed using a 1.5 kb region upstream of the start codon of the human HSPA1A gene to drive luciferase expression as previously described. 50B11 cells (Chen, et al., 2007) were grown in 10 cm dishes in maintenance medium and the cells were transfected using lipofectamine. Twenty four hour after transfection, the cells were re-seeded into 24 well plates at a density of 2×10^5 cells per well. After a 6 hrs period to permit attachment, the cells were treated with the indicated compounds for 16 hrs. Luciferase activity was assessed and normalized to the total protein concentration of each well.

[2] = tested on: Hsp70 protein expression in 50B11 cells; assay: Immunoblot analysis of Hsp70 protein expression; format: cell-based; conditions: 24 hr, 1 μM, FIGS. 3A & 3B
Method: FIGS. 3A & 3B show the induction of Hsp70 protein expression by some of the compounds described herein. […] In the immunoblot analysis, 50B11 cells were treated for 24 hr with 1 μM of the indicated analogs or 250 nM geldanamycin (GDA) as a positive control. […] Results are mean±standard error of the mean (SEM) (n=6). […] The remaining para-substituted and ortho-substituted compounds were similarly effective.
50B11 cells were treated with the indicated compounds for 24 hrs and were scraped into lysis buffer containing 50 mM Tris-HCl, pH 7.4, 150 mM NaCl, 1 mM EDTA, 1% NP-40, 0.5 mM sodium orthovandate, 40 mM NaF, 10 mM β-glycerophosphate, and Complete Protease Inhibitors (Roche Diagnostics). After 15 minutes on ice, the lysates were sonicated then centrifuged at 10,000×g for 10 min at 4° C. The protein concentration of the supernatant was estimated using a Bio-Rad protein assay and bovine serum albumin as the standard. Following SDS-PAGE, the proteins were transferred to nitrocellulose and the membrane incubated with 5% non-fat dry milk in phosphate buffered saline containing 0.1% Tween 20 (PBST) for 1-2 hrs at room temperature. The blots were probed with primary antibodies recognizing Hsp70 or R-actin at 4° C. overnight. The membranes were washed with PBST and subsequently incubated with HRP-conjugated secondary antibodies and immunoreactive proteins were visualized using chemiluminescence detection (GE Healthcare Life Sciences, Little Chalfont, Buckinghamshire, UK). The films were digitally scanned and densitometrically analyzed using ImageJ (NIH) software. Client protein degradation in MCF7 cells was performed as previously described (Urban, et al., 2010).

50B11 cells = assay: Mitochondrial bioenergetic assessment (XF96 extracellular flux analyzer, OCR and ECAR); format: cell-based; conditions: 24 hrs, FIG. 4
Method: 50B11 cells were treated for 24 hr with DMSO (1), 10 nM (2,6,10), 100 nM (3,7,11), 500 nM (4,8,12) or 1,000 nM (5,9,13) of compounds 74 (2-5), 75 (6-9) or 59 (10-13). Mitochondrial respiration was measured in the intact cells using an XF96 extracellular flux analyzer that provides concurrent measures of mitochondrial oxygen consumption rate (OCR) and extracellular acidification rate (ECAR) as an indication of glycolytic activity. Results are plotted OCR versus ECAR. The net effect of the drugs on oxidative phosphorylation and glycolysis is indicated in each quadrant. Results are mean±standard error of the mean (SEM) (n=6).
Oxygen consumption rate (OCR) was assessed in the 50B11 transformed sensory neuron cell line, using an XF96 Extracellular Flux Analyzer (Seahorse Biosciences, North Billerica, Mass.). 50B11 cells were seeded into the 96 well plates at 40,000 cells per well and maintained in high glucose DMEM supplemented with 10% fetal bovine serum (Atlas Biologics, Fort Collins Colo.), 5 μg/ml blasticidin and antibiotics at 37° C. The maintenance media was changed to serum free unbuffered DMEM supplemented with 1 mM pyruvate and 5.5 mM D-glucose and the cells incubated at 37° C. in room air for one hour before starting the assay. After introducing the plate into the XF96 analyzer, the basal oxygen consumption rate (OCR) was measured prior to the addition of 1 μg/ml oligomycin to inhibit the ATP synthase to measure the portion of the basal OCR that was coupled to ATP synthesis; residual OCR after oligomycin treatment is from uncoupled respiration (proton leak). […]
After the respiratory measures, the cells were harvested and the protein content of each well determined using a Bradford protein assay. OCR values were normalized to the total protein content of each well and ATP-linked respiration, proton leak, maximal respiratory capacity, spare respiratory capacity and respiratory control ratio were determined as described (Brand and Nicholls, 2011; Chowdhury, et al., 2012)

[3] = biological target: Hsp90 C-terminus nucleotide binding pocket; conditions: low affinity; cited from earlier work
[4] = 10 nM to 1,000 nM, FIG. 2, Table 2

SMILES | Hsp70 induction in luciferase assay (in words) [1, 4] | Hsp70 protein expression (immunoblot, in words) [2] | Hsp70 induction (luciferase), Mean ([1]; 10 nM) | Hsp70 induction (luciferase), Mean ([1]; 100 nM) | Hsp70 induction (luciferase), Mean ([1]; 500 nM) | Hsp70 induction (luciferase), Mean ([1]; 1000 nM) | also measured
CC(=O)NCCc1ccc(OC2CCC(OCc3ccc(Cl)cc3)[C@@H](O)[C@H]2O)cc1-c1cccc(F)c1 (stereo partly drawn) [Compound 75, N-(2-(5-(((2R,3S)-4-((4-chlorobenzyl)oxy)-2,3-dihydroxycyclohexyl)oxy)-3′-fluoro-[1,1′-biphenyl]-2-yl)ethyl)acetamide] | good induction of Hsp70 | equivalent levels of Hsp70 induction; also recorded: increased Hsp70 protein expression |  |  |  |  | Oxidative phosphorylation and glycolysis (OCR versus ECAR, in words) (50B11 cells; 10 nM to 1,000 nM): more effective at dose dependently increasing oxidative phosphorylation and glycolysis; Cellular respiration (in words) (50B11 cells): increased cellular respiration
CC(=O)NCCc1ccc(OC2CCC(OCc3ccccc3)CC2)cc1-c1cccc(F)c1 (centres unmarked) [Compound 44, N-(2-(5-((4-(benzyloxy)cyclohexyl)oxy)-3′-fluoro-[1,1′-biphenyl]-2yl)ethyl)acetamide] |  | induced Hsp70 protein expression |  |  |  |  | Hsp70 induction in luciferase assay (in words) ([1]; 500 nM and 1,000 nM, FIG. 1): highest level of Hsp70 expression
CC(=O)Nc1cc2ccc(OC3CCC(OCc4ccccc4)CC3)c(C)c2oc1=O (centres unmarked) [Compound 77] |  |  | 146.19 | 106.40 | 102.93 | 100.29 | 
CC(=O)Nc1cc2ccc(OC3CCC(OCc4ccccc4Br)CC3)c(C)c2oc1=O (centres unmarked) [Compound 79, N-(7-((4-((2-bromobenzyl)oxy)cyclohexyl)oxy)-8-methyl-2-oxo-2H-chromen-3-yl)acetamide] |  |  | 105.83 | 102.65 | 97.09 | 91.42 | 
CC(=O)Nc1cc2ccc(OC3CCC(OCc4ccc(Cl)cc4)CC3)c(C)c2oc1=O (centres unmarked) [Compound 78] |  |  | 85.73 | 94.52 | 97.39 | 105.69 | 
CC(=O)NCCc1ccc(OC2C=CC(OCc3ccc(Cl)cc3)CC2)cc1-c1cccc(F)c1 (centres unmarked) [Compound 74] |  | equivalent levels of Hsp70 induction |  |  |  |  | 
COc1ccccc1COC1CCC(Oc2ccc3cc(NC(C)=O)c(=O)oc3c2C)CC1 (centres unmarked) [Compound 80, N-(7-((4-((2-methoxybenzyl)oxy)cyclohexyl)oxy)-8-methyl-2-oxo-2H-chromen-3-yl)acetamide] |  |  | 130.87 | 151.51 | 129.16 | 142.77 | 
CO[C@@H]1[C@@H](OC(N)=O)[C@@H](O)[C@H](Oc2ccc3c(O)c(NC(=O)c4ccc(O)c(CC=C(C)C)c4)c(=O)oc3c2C)OC1(C)C [novobiocin] |  |  |  |  |  |  | IC50 [3]: ~700 µM
CC(=O)NCCc1ccc(O)cc1-c1cccc(F)c1 [Compound 20] | inactive |  | 88.07 | 87.40 | 93.87 | 96.56 | 
CC(=O)NCCc1ccc(OC2CCC(OCc3ccc(Cl)cc3)CC2)cc1-c1cccc(F)c1 (centres unmarked) [Compound 59, N-(2-(5-((4-((4-chlorobenzyl)oxy)cyclohexyl)oxy)-3′-fluoro-[1,1′-biphenyl]-2-yl)ethyl)acetamide] | robust induction of luciferase activity | less effective |  |  |  |  | Cellular respiration (in words) (50B11 cells): decreased cellular respiration
